This passage reports Kd results from patent US10647713B2 (Nimbus Lakshmi, Inc., priority 2016, dated 2020).

A value given as a limit tells only on which side of the number the result lay.

Sequence of human TYK2 (JH2domain-pseudokinase) (P29597 556-888): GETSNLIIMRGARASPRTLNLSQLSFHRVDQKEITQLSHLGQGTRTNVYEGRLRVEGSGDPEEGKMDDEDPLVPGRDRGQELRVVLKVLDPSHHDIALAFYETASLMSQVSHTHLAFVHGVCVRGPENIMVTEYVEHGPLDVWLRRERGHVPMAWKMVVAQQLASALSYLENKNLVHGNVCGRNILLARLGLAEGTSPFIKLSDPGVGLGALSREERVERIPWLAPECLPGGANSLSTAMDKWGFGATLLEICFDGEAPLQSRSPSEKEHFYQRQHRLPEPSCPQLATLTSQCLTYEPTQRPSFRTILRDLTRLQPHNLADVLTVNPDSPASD

This experiment concerns the target human TYK2 (JH2domain-pseudokinase) (Homo sapiens (Human), UniProt P29597). The experiment can be described thus: TYK2 JH2 Domain Binding Assay (KINOMEscan, DiscoveRx). Conditions: 11-point dilution, duplicate. The procedure:
Binding constants for compounds of the present invention against the JH2 domain were determined by the following protocol for a KINOMEscan® assay (DiscoveRx). A fusion protein of a partial length construct of human TYK2 (JH2domain-pseudokinase) (amino acids G556 to D888 based on reference sequence NP_003322.3) and the DNA binding domain of NFkB was expressed in transiently transfected HEK293 cells. From these HEK 293 cells, extracts were prepared in M-PER extraction buffer (Pierce) in the presence of Protease Inhibitor Cocktail Complete (Roche) and Phosphatase Inhibitor Cocktail Set II (Merck) per manufacturers' instructions. The TYK2 (JH2domain-pseudokinase) fusion protein was labeled with a chimeric double-stranded DNA tag containing the NFkB binding site (5′-GGGAATTCCC-3′) fused to an amplicon for qPCR readout, which was added directly to the expression extract (the final concentration of DNA-tag in the binding reaction is 0.1 nM).
Streptavidin-coated magnetic beads (Dynal M280) were treated with a biotinylated small molecule ligand for 30 minutes at room temperature to generate affinity resins the binding assays. The liganded beads were blocked with excess biotin and washed with blocking buffer (SeaBlock (Pierce), 1% BSA, 0.05% Tween 20, 1 mM DTT) to remove unbound ligand and to reduce nonspecific binding.
The binding reaction was assembled by combining 16 μl of DNA-tagged kinase extract, 3.8 μl liganded affinity beads, and 0.18 μl test compound (PBS/0.05% Tween 20/10 mM DTT/0.1% BSA/2 μg/ml sonicated salmon sperm DNA)]. Extracts were used directly in binding assays without any enzyme purification steps at a ≥10,000-fold overall stock dilution (final DNA-tagged enzyme concentration <0.1 nM). Extracts were loaded with DNA-tag and diluted into the binding reaction in a two step process. First extracts were diluted 1:100 in 1× binding buffer (PBS/0.05% Tween 20/10 mM DTT/0.1% BSA/2 μg/ml sonicated salmon sperm DNA) containing 10 nM DNA-tag. This dilution was allowed to equilibrate at room temperature for 15 minutes and then subsequently diluted 1:100 in 1× binding buffer. Test compounds were prepared as 111× stocks in 100% DMSO. Kds were determined using an 11-point 3-fold compound dilution series with three DMSO control points. All compounds for Kd measurements are distributed by acoustic transfer (non-contact dispensing) in 100% DMSO. The compounds were then diluted directly into the assays such that the final concentration of DMSO was 0.9%. All reactions performed in polypropylene 384-well plates. Each was a final volume of 0.02 mL. Assays were incubated with shaking for 1 hour at room temperature. Then the beads were pelleted and washed with wash buffer (1×PBS, 0.05% Tween 20) to remove displaced kinase and test compound. The washed based were re-suspended in elution buffer (1×PBS, 0.05% Tween 20, 0.5 μM non-biotinylated affinity ligand) and incubated at room temperature with shaking for 30 minutes. The kinase concentration in the eluates was measured by qPCR. qPCR reactions were assembled by adding 2.5 μL of kinase eluate to 7.5 μL of qPCR master mix containing 0.15 μM amplicon primers and 0.15 μM amplicon probe. The qPCR protocol consisted of a 10 minute hot start at 95° C., followed by 35 cycles of 95° C. for 15 seconds, 60° C. for 1 minute.
Test compounds were prepared as 111× stocks in 100% DMSO. Kds were determined using an 11-point 3-fold compound dilution series with three DMSO control points. All compounds for Kd measurements are distributed by acoustic transfer (non-contact dispensing) in 100% DMSO. The compounds were then diluted directly into the assays such that the final concentration of DMSO was 0.9%. The Kds were determined using a compound top concentration of 30,000 nM. Kd measurements were performed in duplicate.
Binding constants (Kds) were calculated with a standard dose-response curve using the Hill equation: […]
The Hill Slope was set to −1. […]
As a reminder, the Kd is a measure of binding affinity in units of concentration. A lower Kd goes with tighter binding. Consider `COc1c(Nc2cc(Nc3ccc(C(=O)N4CCCC4)c(C(F)(F)F)n3)nc3[nH]c(C(F)F)nc23)cccc1-c1nnn(C)n1` [I-36, (6-((2-(difluoromethyl)-7-((2-methoxy-3-(2-methyl-2H-tetrazol-5-yl)phenyl)amino)-3H-imidazo[4,5-b]pyridin-5-yl)amino)-2-(trifluoromethyl)pyridin-3-yl)(pyrrolidin-1-yl)methanone], for which the Kd was 0.1 to 0.5 nM.
In turn, `COc1c(Nc2cc(Nc3ccc(N4CCCC4=O)c(C#N)n3)nc3[nH]c(C(F)F)nc23)cccc1-c1nnn(C)n1` [I-37, 6-((2-(difluoromethyl)-7-((2-methoxy-3-(2-methyl-2H-tetrazol-5-yl)phenyl)amino)-3H-imidazo[4,5-b]pyridin-5-yl)amino)-3-(2-oxopyrrolidin-1-yl)picolinonitrile] showed a Kd of 0.1 to 0.5 nM.
Regarding `COc1c(Nc2cc(Nc3cnc(C)c(C#N)n3)nc3[nH]c(C(F)F)nc23)cccc1-c1nnn(C)n1` [I-38, 6-((2-(difluoromethyl)-7-((2-methoxy-3-(2-methyl-2H-tetrazol-5-yl)phenyl)amino)-3H-imidazo[4,5-b]pyridin-5-yl)amino)-3-methylpyrazine-2-carbonitrile], the Kd lay within 1 to 10 nM.
Molecule `COc1c(Nc2cc(Nc3ccc(N4CC[C@H](OC)C4)c(C#N)n3)nc3[nH]c(C(F)F)nc23)cccc1-c1nnn(C)n1` [I-39, (S)-6-((2-(difluoromethyl)-7-((2-methoxy-3-(2-methyl-2H-tetrazol-5-yl)phenyl)amino)-3H-imidazo[4,5-b]pyridin-5-yl)amino)-3-(3-methoxypyrrolidin-1-yl)picolinonitrile] showed a Kd of 0.1 to 0.5 nM.
Turning to `COc1c(Nc2cc(Nc3ccc(N4CCC4)c(C#N)n3)nc3[nH]c(C(F)F)nc23)cccc1-c1nnn(C)n1` [I-40, 3-(azetidin-1-yl)-6-((2-(difluoromethyl)-7-((2-methoxy-3-(2-methyl-2H-tetrazol-5-yl)phenyl)amino)-3H-imidazo[4,5-b]pyridin-5-yl)amino)picolinonitrile], the Kd was 0.1 to 0.5 nM.
Regarding `COc1c(Nc2cc(NC(=O)C3CC3)nc3[nH]c(C(F)F)nc23)cccc1-c1nc(C)nn1C` [I-41, N-(2-(difluoromethyl)-7-((3-(1,3-dimethyl-1H-1,2,4-triazol-5-yl)-2-methoxyphenyl)amino)-3H-imidazo[4,5-b]pyridin-5-yl)cyclopropanecarboxamide], the Kd is > 10 nM.
As for `COc1c(Nc2cc(Nc3ccc(C(C)C)c(C#N)n3)nc3[nH]c(C(F)F)nc23)cccc1-c1nnn(C)n1` [I-42, 6-((2-(difluoromethyl)-7-((2-methoxy-3-(2-methyl-2H-tetrazol-5-yl)phenyl)amino)-3H-imidazo[4,5-b]pyridin-5-yl)amino)-3-isopropylpicolinonitrile], the Kd was in the range of 1 to 10 nM.
Next, `Cc1ccc(Nc2cc(Nc3ccccc3N(C)S(C)(=O)=O)c3nc(C(F)F)[nH]c3n2)nn1` [I-43, N-(2-((2-(difluoromethyl)-5-((6-methylpyridazin-3-yl)amino)-3H-imidazo[4,5-b]pyridin-7-yl)amino)phenyl)-N-methylmethanesulfonamide]: 0.1 to 0.5 nM.
In the case of `CN(c1ccccc1Nc1cc(Nc2cccc(C#N)n2)nc2[nH]c(C(F)F)nc12)S(C)(=O)=O` [I-44, N-(2-((5-((6-cyanopyridin-2-yl)amino)-2-(difluoromethyl)-3H-imidazo[4,5-b]pyridin-7-yl)amino)phenyl)-N-methylmethanesulfonamide], the Kd is < 0.1 nM.
For `Cc1cc(Nc2cc(Nc3ccccc3N(C)S(C)(=O)=O)c3nc(C(F)F)[nH]c3n2)nc(C)n1` [I-45, N-(2-((2-(difluoromethyl)-5-((2,6-dimethylpyrimidin-4-yl)amino)-3H-imidazo[4,5-b]pyridin-7-yl)amino)phenyl)-N-methylmethanesulfonamide] the value was 0.1 to 0.5 nM; for `COc1c(Nc2cc(Nc3ccc(NCCCCl)c(C#N)n3)nc3[nH]c(C(F)F)nc23)cccc1-c1nnn(C)n1` [I-46, 3-((3-chloropropyl)amino)-6-((2-(difluoromethyl)-7-((2-methoxy-3-(2-methyl-2H-tetrazol-5-yl)phenyl)amino)-3H-imidazo[4,5-b]pyridin-5-yl)amino)picolinonitrile], 0.5 to 1 nM; for `COc1c(Nc2cc(Nc3cnc(N4CCOCC4)c(C#N)n3)nc3[nH]c(C(F)F)nc23)cccc1-c1nnn(C)n1` [I-47, 6-((2-(difluoromethyl)-7-((2-methoxy-3-(2-methyl-2H-tetrazol-5-yl)phenyl)amino)-3H-imidazo[4,5-b]pyridin-5-yl)amino)-3-morpholinopyrazine-2-carbonitrile], 1 to 10 nM.
For `COc1c(Nc2cc(Nc3cnc(N4CC[C@@H](OC)C4)c(C#N)n3)nc3[nH]c(C(F)F)nc23)cccc1-c1nnn(C)n1` [I-48, (R)-6-((2-(difluoromethyl)-7-((2-methoxy-3-(2-methyl-2H-tetrazol-5-yl)phenyl)amino)-3H-imidazo[4,5-b]pyridin-5-yl)amino)-3-(3-methoxypyrrolidin-1-yl)pyrazine-2-carbonitrile] the value was 1 to 10 nM; for `COc1c(Nc2cc(Nc3ccc(C(C)(C)OC)c(C#N)n3)nc3[nH]c(C(F)F)nc23)cccc1-c1nnn(C)n1` [I-49, 6-((2-(difluoromethyl)-7-((2-methoxy-3-(2-methyl-2H-tetrazol-5-yl)phenyl)amino)-3H-imidazo[4,5-b]pyridin-5-yl)amino)-3-(2-methoxypropan-2-yl)picolinonitrile], > 10 nM.
Next, `COC1CN(c2ccc(Nc3cc(NC(=O)C4CC4)nc4[nH]c(C(F)F)nc34)c(N(C)S(C)(=O)=O)c2)C1` [I-50, N-(2-(difluoromethyl)-7-((4-(3-methoxyazetidin-1-yl)-2-(N-methylmethylsulfonamido)phenyl)amino)-3H-imidazo[4,5-b]pyridin-5-yl)cyclopropanecarboxamide]: 1 to 10 nM.
Take `COc1c(Nc2cc(NC(=O)C3CC3)nc3[nH]c(C(F)F)nc23)cccc1-n1cnc(C)n1` [I-51, N-(2-(difluoromethyl)-7-((2-methoxy-3-(3-methyl-1H-1,2,4-triazol-1-yl)phenyl)amino)-3H-imidazo[4,5-b]pyridin-5-yl)cyclopropanecarboxamide]: the Kd is > 10 nM.
Next, `COc1c(Nc2cc(NC(=O)C3CC3)nc3[nH]c(C(F)F)nc23)cccc1-c1nn(C)nc1C` [I-53, N-(2-(difluoromethyl)-7-((3-(2,5-dimethyl-2H-1,2,3-triazol-4-yl)-2-methoxyphenyl)amino)-3H-imidazo[4,5-b]pyridin-5-yl)cyclopropanecarboxamide]: > 10 nM; `COc1c(Nc2cc(NC(=O)C3CC3)nc3[nH]c(C(F)F)nc23)cccc1-n1nc(C)nc1C` [I-54, N-(2-(difluoromethyl)-7-((3-(3,5-dimethyl-1H-1,2,4-triazol-1-yl)-2-methoxyphenyl)amino)-3H-imidazo[4,5-b]pyridin-5-yl)cyclopropanecarboxamide]: > 10 nM.
Next, `COc1c(Nc2cc(NC(=O)C3CC3)nc3[nH]c(C(F)F)nc23)cccc1-n1ncnc1C` [I-55, N-(2-(difluoromethyl)-7-((2-methoxy-3-(5-methyl-1H-1,2,4-triazol-1-yl)phenyl)amino)-3H-imidazo[4,5-b]pyridin-5-yl)cyclopropanecarboxamide]: > 10 nM; `COc1c(Nc2cc(Nc3cnc(C(C)(C)OC)c(C)n3)nc3[nH]c(C(F)F)nc23)cccc1-c1nnn(C)n1` [I-56, 2-(difluoromethyl)-N7-(2-methoxy-3-(2-methyl-2H-tetrazol-5-yl)phenyl)-N5-(5-(2-methoxypropan-2-yl)-6-methylpyrazin-2-yl)-3H-imidazo[4,5-b]pyridine-5,7-diamines]: 1 to 10 nM.
